The experiment concerns the target T1, Axl (Homo sapiens, UniProt P30530).
T1 construct: endogenous in cells; host or cells: HeLa cells
T1 sequence (P30530 26-894): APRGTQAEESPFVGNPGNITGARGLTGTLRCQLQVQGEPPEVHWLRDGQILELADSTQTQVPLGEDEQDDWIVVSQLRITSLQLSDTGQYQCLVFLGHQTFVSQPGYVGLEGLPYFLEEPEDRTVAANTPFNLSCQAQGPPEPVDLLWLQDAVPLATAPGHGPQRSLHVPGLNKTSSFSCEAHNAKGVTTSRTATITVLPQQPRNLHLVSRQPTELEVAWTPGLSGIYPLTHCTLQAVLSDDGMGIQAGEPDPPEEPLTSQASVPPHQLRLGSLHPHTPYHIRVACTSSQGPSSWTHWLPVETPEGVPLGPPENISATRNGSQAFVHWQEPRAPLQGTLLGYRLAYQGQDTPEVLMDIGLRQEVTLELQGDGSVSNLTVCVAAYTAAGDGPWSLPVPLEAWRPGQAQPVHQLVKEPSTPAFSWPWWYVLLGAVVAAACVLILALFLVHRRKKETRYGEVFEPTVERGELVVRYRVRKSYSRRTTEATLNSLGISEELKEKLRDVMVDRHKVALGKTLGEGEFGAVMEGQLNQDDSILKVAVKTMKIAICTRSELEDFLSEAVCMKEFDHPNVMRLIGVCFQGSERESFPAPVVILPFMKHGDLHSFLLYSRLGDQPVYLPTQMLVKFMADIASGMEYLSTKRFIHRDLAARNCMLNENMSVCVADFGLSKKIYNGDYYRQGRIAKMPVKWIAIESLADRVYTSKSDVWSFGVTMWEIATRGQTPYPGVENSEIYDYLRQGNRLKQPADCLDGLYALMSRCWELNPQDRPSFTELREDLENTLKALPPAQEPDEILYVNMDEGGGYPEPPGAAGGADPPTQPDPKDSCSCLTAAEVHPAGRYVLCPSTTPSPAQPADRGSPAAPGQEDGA
Put plainly: Phospho-Akt in-cell Western assay (inhibition of Axl activity). The format is cell-based. The method in brief: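 HeLa cells on poly-L-lysine, starved 24 h in 0.5% FCS DMEM with Axl/Fc 500 ng/mL, pre-treated with compound 1 h at 37° C. Axl stimulated 5 min by anti-Axl/anti-mouse antibody cross-linking. Fixed cells probed with anti-phospho-Akt and HRP secondary, chemiluminescence read.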

Where [1] appears, read: inhibition of Axl activity, phospho-Akt in-cell Western assay, Table 1.
The mark [2] stands for this setting: Table 2, Hela cells, Axl antibody cross-linking stimulation, phospho-Akt chemiluminescence.
Setting [3] is: inhibition of Axl activity, Table 1.
[4] abbreviates: Table 3, Hela cells, Axl antibody cross-linking stimulation, phospho-Akt chemiluminescence.

The values that follow come from US8389557B2, “Triazole derivatives useful as Axl inhibitors” (Rigel Pharmaceuticals, Inc., priority 2005, dated 2013).

pIC50: −log10 of the molar value.

In turn, `Nc1nc(Nc2ccc(OCCN3CCCC3)cc2)nn1C(=O)c1c(F)cccc1F` [compound 289, 5-amino-1-(2,6-difluorophenyl)carbonyl-3-[4-[2-(pyrrolidin-1-yl)ethoxy]phenylamino]-1H-1,2,4-triazole] showed a negative-log IC50 (pIC50) under setting [1] of under 4.70.

`CC(C)Oc1ccc(C(=O)n2nc(Nc3ccc(N4CCCCC4)cc3)nc2N)cc1` [compound #26, 5-Amino-1-(4-(iso-propoxy)phenyl)carbonyl-3-[4-(piperidin-1-yl)phenylamino]-1H-1,2,4-triazole]: the negative-log IC50 (pIC50) under setting [1] is 5.00 to 6.00.

`CC(C)(C)Oc1ccc(C(=O)n2nc(N)nc2Nc2ccc(N3CCOCC3)cc2)cc1` [compound 58, 3-amino-5-(4-(morpholin-4-yl)phenylamino)-1-(4-(tert-butoxy)phenyl)carbonyl-1H-1,2,4-triazole] gave a negative logarithm of the IC50 (pIC50) under setting [2] of under 4.70.

Molecule `COc1ccc(C(=O)n2nc(Nc3ccc(OCCN4CCCC4)cc3)nc2N)cc1OC` [compound 198, 5-amino-1-(3,4-(dimethoxy)phenyl)carbonyl-3-[4-[2-(pyrrolidin-1-yl)ethoxy]phenylamino]-1H-1,2,4-triazole] showed a pIC50 under setting [1] of under 4.70.

In the case of `CC(=O)Oc1ccccc1C(=O)n1nc(Nc2ccc3c(c2)OCCO3)nc1N` [compound 119, 1-(2-(acetoxy)phenyl)carbonyl-5-amino-3-(1,4-benzodioxan-6-yl)amino-1H-1,2,4-triazole], the negative-log IC50 (pIC50) under setting [3] is 5.00 to 6.00.

Consider `Nc1nc(Nc2ccccc2)nn1C(=O)c1ccc(-c2csnn2)cc1` [compound 334, 5-amino-1-(4-(1,2,3-thiadiazol-4-yl)phenyl)carbonyl-3-(phenylamino)-1H-1,2,4-triazole], for which the pIC50 under setting [1] is under 4.70.

Molecule `Nc1ccc(C(=O)n2nc(Nc3ccc4c(c3)OCCO4)nc2N)cc1` [compound 243, 5-amino-1-(4-aminophenyl)carbonyl-3-(1,4-benzodioxan-6-yl)amino-1H-1,2,4-triazole] had a negative logarithm of the IC50 (pIC50) under setting [3] of 5.00 to 6.00.

In the case of `CN(C)CCOc1ccc(Nc2nc(N)n(C(=O)c3ccc(OC(C)(C)C)cc3)n2)cc1` [compound 83, 5-amino-3-[4-[2-(dimethylamino)ethoxy]phenylamino]-1-(4-(tert-butoxy)phenyl)carbonyl-1H-1,2,4-triazole], the pIC50 under setting [3] was over 6.00.

`Nc1nc(Nc2ccc(OCCN3CCCC3)cc2)nn1C(=S)Nc1c(F)cc(F)cc1F` [compound 325, 5-amino-N-(2,4,6-trifluorophenyl)-3-[4-[2-(pyrrolidin-1-yl)ethoxy]phenylamino]-1H-1,2,4-triazole-1-carbothioamide] had a negative-log IC50 (pIC50) (Table 7, Hela cells, Axl antibody cross-linking stimulation, phospho-Akt chemiluminescence) of 5.00 to 6.00.

Turning to `CN1CCN(c2ccc(Nc3nc(N)nn3C(=O)c3ccc(N(C)C)cc3)cc2)CC1` [compound 362, 3-amino-1-(4-(dimethylamino)phenyl)carbonyl-5-(4-(4-methylpiperazin-1-yl)phenylamino]-1H-1,2,4-triazole], the pIC50 under setting [2] is 5.00 to 6.00.

`CC(C)(C)Oc1ccc(C(=O)n2nc(Nc3ccc(OCCN4CCCCC4)cc3)nc2N)cc1` [compound 50, 5-amino-3-[4-[2-(piperidin-1-yl)ethoxy]phenylamino]-1-(4-(tert-butoxy)phenyl)carbonyl-1H-1,2,4-triazole] showed a pIC50 under setting [3] of over 6.00.

Consider `CC(C)(C)Oc1ccc(C(=O)n2nc(N)nc2NC2C3C=CC(C3)C2C(N)=O)cc1` (centres unmarked) [compound 345, 3-amino-1-(4-(tert-butoxy)phenyl)carbonyl-5-[(3-(aminocarbonyl)bicyclo[2.2.1]hept-5-en-2-yl)amino]-1H-1,2,4-triazole], for which the pIC50 (Table 6, Hela cells, Axl antibody cross-linking stimulation, phospho-Akt chemiluminescence) was under 4.70.

Under “Table 4, Hela cells, Axl antibody cross-linking stimulation, phospho-Akt chemiluminescence”, `Nc1nc(Nc2ccc(OCCN3CCCC3)cc2)n(C(=O)c2cc3ccccc3s2)n1` [compound 368, 3-amino-1-(benzo[b]thiophen-2-yl)carbonyl-5-[4-[2-(pyrrolidin-1-yl)ethoxy]phenylamino]-1H-1,2,4-triazole] showed a pIC50 of 5.00 to 6.00.

The molecule `Cc1ccc(C(=O)n2nc(Nc3ccc(OCCN4CCCC4)cc3)nc2N)cc1` [compound #12, 5-Amino-1-(4-methylphenyl)carbonyl-3-[4-[2-(pyrrolidin-1-yl)ethoxy]phenylamino]-1H-1,2,4-triazole] had a pIC50 under setting [1] of over 6.00.

The molecule `CC1(C)Oc2ccc(C(=O)n3nc(Nc4ccc(N5CCCC5)cc4)nc3N)cc2NC1=O` [compound 295, 5-amino-1-(2,2-dimethyl-2H-benzo[b][1,4]oxazin-3(4H)-on-6-yl)carbonyl-3-[4-(pyrrolidin-1-yl)phenylamino]-1H-1,2,4-triazole] gave a negative-log IC50 (pIC50) under setting [4] of 5.00 to 6.00.

As for `Cc1ccc(C(=O)n2nc(Nc3ccc(OCCN4CCCC4)cc3)nc2N)s1` [compound 284, 5-amino-1-(5-methylthien-2-yl)carbonyl-3-[4-[2-(pyrrolidin-1-yl)ethoxy]phenylamino]-1H-1,2,4-triazole], under setting [4], the pIC50 is over 6.00.

Under setting [4], `Nc1nc(Nc2ccc(OCCN3CCCC3)cc2)nn1C(=O)C1CC2CCC1C2` (centres unmarked) [compound 200, 5-amino-1-[2-(bicyclo[2.2.1]heptane)carbonyl]-3-[4-[2-(pyrrolidin-1-yl)ethoxy]phenylamino]-1H-1,2,4-triazole] had a pIC50 of under 4.70.

`Cc1ccc(C(=O)n2nc(Nc3ccc4c(c3)OCCO4)nc2N)cc1Cl` [compound 249, 5-amino-1-[(3-chloro-4-methyl)phenyl]carbonyl-3-(1,4-benzodioxan-6-yl)-amino-1H-1,2,4-triazole] showed a pIC50 under setting [3] of under 4.70.

The molecule `CNc1ccc(C(=O)n2nc(Nc3ccc(OCCN4CCCC4)cc3)nc2N)cc1` [compound 286, 5-amino-1-(4-(methylamino)phenyl)carbonyl-3-[4-[2-(pyrrolidin-1-yl)ethoxy]phenylamino]-1H-1,2,4-triazole] had a pIC50 under setting [1] of over 6.00.

`CC(C)Oc1ccc(C(=O)n2nc(N)nc2Nc2ccc(N3CCCCC3)cc2)cc1` [compound 192, 3-amino-1-(4-(iso-propoxy)phenyl)carbonyl-5-[4-(piperidin-1-yl)phenylamino]-1H-1,2,4-triazole] had a negative-log IC50 (pIC50) under setting [2] of 4.70 to 5.00.

For the molecule `CC(C)(C)Oc1ccc(C(=O)n2nc(Nc3ccc(OCCn4ccnc4)cc3)nc2N)cc1` [compound 370, 5-amino-1-(4-(tert-butoxy)phenyl)carbonyl-3-[4-[2-(imidazol-1-yl)ethoxy]phenylamino]-1H-1,2,4-triazole], under setting [1], the negative-log IC50 (pIC50) is over 6.00.

`CC(C)Oc1ccc(C(=O)n2nc(Nc3cccc(OCC#N)c3)nc2N)cc1` [(Ia-21), 5-amino-3-[3-(cyanomethoxy)phenylamino]-1-(4-(iso-propoxy)phenyl)carbonyl-1H-1,2,4-triazole] showed a negative-log IC50 (pIC50) under setting [3] of 5.00 to 6.00.

In turn, `COc1cccc(C(=O)n2nc(Nc3ccc4c(c3)OCCO4)nc2N)c1` [compound 98, 5-amino-3-(1,4-benzodioxan-6-yl)amino-1-(3-(methoxy)phenyl)carbonyl-1H-1,2,4-triazole] had a negative logarithm of the IC50 (pIC50) under setting [3] of 5.00 to 6.00.

Take `CN(C)c1ccc(C(=O)n2nc(Nc3ccc(OCCn4ccnc4)cc3)nc2N)cc1` [compound 373, 5-amino-1-(4-(dimethylamino)phenyl)carbonyl-3-[4-[2-(imidazol-1-yl)ethoxy]phenylamino]-1H-1,2,4-triazole]: under setting [1], the negative logarithm of the IC50 (pIC50) was over 6.00.

In the case of `Nc1nc(Nc2ccc(OCCN3CCCC3)cc2)nn1C(=O)c1ccc(N2CCOCC2)cc1` [compound 382, 5-amino-1-(4-(morpholin-4-yl)phenyl)carbonyl-3-[4-[2-(pyrrolidin-1-yl)ethoxy]phenylamino]-1H-1,2,4-triazole], the pIC50 under setting [1] is over 6.00.

Molecule `Nc1nc(Nc2ccccc2)nn1C(=O)c1ccc(N2CCOCC2)cc1` [compound 335, 5-amino-1-(4-(morpholin-4-yl)phenyl)carbonyl-3-(phenylamino)-1H-1,2,4-triazole] had a negative-log IC50 (pIC50) under setting [1] of under 4.70.

For orientation: pIC50 means −log10 of the IC50, conventionally taken in molar units.
